From PMC7251097, “Aspartate/asparagine-β-hydroxylase: a high-throughput mass spectrometric assay for discovery of small molecule inhibitors” (Scientific Reports, 2020)
Where a name gives a salt, the structure may show the parent alone. Read-outs that look alike come from different tables or passages of the source.

Target: T1, His6-AspH315–758 (human aspartate/asparagine-β-hydroxylase, AspH) (Homo sapiens, UniProt Q12797)
T1 construct: N-Terminally His6-tagged human AspH315–758 (His6-AspH315–758) was produced in E. coli BL21 (DE3) cells; made in house; host or cells: E. coli BL21 (DE3), pET-28a(+) vector
T1 sequence (Q12797 315-758): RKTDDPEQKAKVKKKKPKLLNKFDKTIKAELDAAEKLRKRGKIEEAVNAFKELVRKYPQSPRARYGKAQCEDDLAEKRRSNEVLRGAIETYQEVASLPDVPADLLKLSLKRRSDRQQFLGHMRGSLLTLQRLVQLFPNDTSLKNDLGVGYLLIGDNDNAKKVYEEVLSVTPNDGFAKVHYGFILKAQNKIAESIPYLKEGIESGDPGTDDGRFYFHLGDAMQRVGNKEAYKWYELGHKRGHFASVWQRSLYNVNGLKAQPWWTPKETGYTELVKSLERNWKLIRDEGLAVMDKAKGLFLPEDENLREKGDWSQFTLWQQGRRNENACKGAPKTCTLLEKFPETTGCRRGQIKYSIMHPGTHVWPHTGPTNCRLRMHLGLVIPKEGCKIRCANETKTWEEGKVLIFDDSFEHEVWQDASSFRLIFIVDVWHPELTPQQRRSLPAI
Experiment: SPE-MS AspH inhibition assay (LOPAC screen at fixed 20 μM and IC50 dose-response), hydroxylation of cyclic peptide hFX-CP101–119
Type: biochemical
Settings: for IC50: 50 nM His6-AspH315–758, 1.0 μM hFX-CP101–119, 3 μM 2OG, 2 μM Fe(II), 50 mM HEPES pH 7.5, 20 °C, mean ± SD, n = 2 (2,4-PDCA n = 10), read-out: IC50; for Inhibition at 20 µM [%]: AspH activity, fixed compound concentration 20 μM, initial LOPAC screen, 0.5%v/v DMSO

[1] = LOPAC compound at 20uM, conversion of substrate peptide
[2] = plate 5 (Pfitzer), test compounds at fixed 20 μM
[3] = plate 5 (Pfitzer), test compounds at fixed 20 μM, mean conversion DMSO 32.88
[4] = LOPAC Plate 4, compound at 20 uM, substrate conversion
[5] = LOPAC compound at 20uM, plate 2, conversion of substrate peptide
[6] = LOPAC compound at 20uM, plate 2, normalised to DMSO and 2,4-PDCA controls
[7] = LOPAC Plate 4, compound at 20 uM
[8] = LOPAC compound at fixed 20 uM, plate 1, normalised to DMSO and 2,4-PDCA controls
[9] = LOPAC compound at fixed 20 uM, substrate conversion, plate 1
[10] = LOPAC compound at 20uM, plate 2, normalised to DMSO and 2,4-PDCA controls, read-out: Plate 2 (% inhibition)
[11] = LOPAC Plate 4, compound at 20 uM, read-out: % inhibition

## NS(=O)(=O)c1ccc(-n2nc(C(F)(F)F)cc2-c2ccc(Cl)cc2)cc1 [SC-236]
[1]
  Plate 3 (% conversion): 40.00%
[2]
  Plate 5 (% inhibition): -23.50%
[3]
  Plate 5 (% conversion): 44.31%

## N#CC(CCCN1CCN(/N=C/c2cccnc2)CC1)(c1ccccc1)c1ccccc1 [SC-26196]
[2]
  Plate 5 (% inhibition): 23.44%
[3]
  Plate 5 (% conversion): 28.34%

## O=C(CCSCc1ccco1)NNC(=O)N1Cc2ccccc2Oc2ccc(Cl)cc21 [SC-51322]
[4]
  % conversion: 23.51%
[2]
  Plate 5 (% inhibition): 13.59%
[3]
  Plate 5 (% conversion): 31.69%

## COc1cc(N)c(Cl)cc1C(=O)NC[C@@H]1CCN2CCC[C@@H]12 [SC-53116]
[2]
  Plate 5 (% inhibition): 9.86%
[3]
  Plate 5 (% conversion): 32.96%

## CN(CCCOc1ccc(Cc2ccccc2)cc1)CCC(=O)O.Cl [SC-57461A]
  % conversion: 41.07%
  Plate 5 (% conversion): 38.96%
  Plate 5 (% inhibition): -7.77%
20 µM
  % inhibition: -13.47%

## CS(=O)(=O)c1ccc(-n2nc(C(F)(F)F)cc2-c2ccc(F)cc2)cc1 [SC-58125]
[1]
  Plate 3 (% conversion): 37.41%
[2]
  Plate 5 (% inhibition): 0.65%
[3]
  Plate 5 (% conversion): 36.09%

## Nc1nc2c(cnn2CCc2ccccc2)c2nc(-c3ccco3)nn12 [SCH 58261]
[4]
  % conversion: 31.57%

## Cc1nc2c(OCc3ccccc3)cccn2c1CC#N [SCH-28080]
[5]
  Plate 2 (% conversion): 38.71%
[6]
  Plate 2 (% inhibition): -8.22%

## CN=c1nc(-c2ccccc2)n(-c2ccccc2)s1 [SCH-202676, reference compound]
Listed as C00007
  IC50: 510 ± 80 nM
  IC50: ~500 nM
  Inhibition at 20 µM [%]: 100.6%
[7]
  % inhibition: 100.56%
[4]
  % conversion: 2.15%

## CCN(CC)CCOC(=O)c1cc(Cl)c(N)cc1OC.Cl [SDZ-205,557 hydrochloride]
[7]
  % inhibition: -2.39%
[4]
  % conversion: 37.29%

## Cc1ccc(O)c(N=Nc2ccccc2)n1 [SIB 1757]
[4]
  % conversion: 30.83%

## Cc1cccc(/C=C/c2ccccc2)n1 [SIB 1893]
[4]
  % conversion: 34.05%

## Br.Cc1cccc(C2CN(C)CCc3c2cc(O)c(O)c3Cl)c1 (stereo not drawn) [SKF 83959 hydrobromide, reference compound]
  Inhibition at 20 µM [%]: 95.1%
[7]
  % inhibition: 95.13%
[4]
  % conversion: 4.00%

## CN1CCc2cccc(Cl)c2CC1 [SKF 86466]
  % conversion: 40.52%
  inhibition at 20 µM: -11.9%

## O=C(O)/C=C\C(=O)O.O=C(O)/C=C\C(=O)O.c1cc(CN2CCCCC2)cc(OCCCNc2nc3ccccc3s2)c1 [SKF 95282 dimaleate]
  % conversion: 24.14%

## CCCC(C(=O)OCCN(CC)CC)(c1ccccc1)c1ccccc1.Cl [SKF-525A hydrochloride]
[1]
  Plate 3 (% conversion): 49.23%

## Br.CN1Cc2sccc2C(c2ccc(O)c(O)c2)C1 (stereo not drawn) [SKF-89145 hydrobromide]
[8]
  Plate 1 (% inhibition): 78.75%
[9]
  Plate 1 (% conversion): 9.43%

## C=CCNc1ncnc2ccc(Br)cc12 [SMER28]
[4]
  % conversion: 30.76%

## C=CCN1C[C@H](C)N([C@H](c2ccc(C(=O)N(CC)CC)cc2)c2cccc(OC)c2)C[C@H]1C [SNC80]
  % conversion: 40.53%
20 µM
  % inhibition: -11.89%

## Oc1c2ccccc2c2c3c(cccc13)N=N2 [SP600125]
[5]
  Plate 2 (% conversion): 37.53%
[10]
  inhibition at 20 µM: -4.71%

## Nc1ncnc2c1ncn2C1CCCO1 (stereo not drawn) [SQ 22536]
  % conversion: 37.42%

## CCc1ccccc1OC[C@@H](O)CN[C@H]1CCCc2ccccc21.O=C(O)C(=O)O [SR 59230A oxalate]
  % conversion: 13.86%
20 µM
  % inhibition: 66.24%

## COc1cccc(OC)c1-c1cc(C(=O)NC2(C(=O)O)C3CC4CC(C3)CC2C4)nn1-c1ccc(C(=O)N(C)CCCN(C)C)cc1C(C)C (stereo not drawn) [SR 142948A]
[5]
  Plate 2 (% conversion): 44.18%
[6]
  Plate 2 (% inhibition): -24.57%

## Br.COc1ccc(-c2ccc(=N)n(CCCC(=O)O)n2)cc1 [SR-95531]
  % conversion: 38.69%
20 µM
  % inhibition: -6.50%

## Cc1cc(C)c(/C=C2\C(=O)Nc3ccc(Cl)cc32)[nH]1 [SU5614]
[2]
  Plate 5 (% inhibition): 8.69%

## CN(C)c1ccc(/C=C2\C(=O)Nc3ccccc32)cc1 [SU 4312]
[7]
  % inhibition: 2.06%
[4]
  % conversion: 35.77%

## CN(C)S(=O)(=O)c1ccc2c(c1)/C(=C/c1cc3c([nH]1)CCCC3)C(=O)N2 [SU 6656]
[4]
  % conversion: 31.14%
[11]
  inhibition at 20 µM: 15.6%

## CCCCCCCCCC[Si](C)(C)CCC(=O)NC(Cc1ccc(C)cc1)c1ccccc1 (stereo not drawn) [Sandoz 58-035]
  Plate 1 (% conversion): 37.15%
  Plate 1 (% inhibition): -3.81%

## C[n+]1cc2c3c(ccc2c2ccc4cc5c(cc4c21)OCO5)OCO3 [Sanguinarine chloride]
  % conversion: 10.82%

## Cl.NNC(N)=O [Semicarbazide hydrochloride]
  % conversion: 22.57%

## C[C@H](O)C(=O)C1=Nc2c(nc(N)[nH]c2=O)NC1 [Sepiapterin]
[4]
  % conversion: 40.54%
[11]
  inhibition at 20 µM: -11.9%

## NCCc1c[nH]c2ccc(O)cc12 [Serotonin hydrochloride]
  Plate 2 (% conversion): 31.81%
[10]
  inhibition at 20 µM: 12.4%

## CCCc1nn(C)c2c(=O)[nH]c(-c3cc(S(=O)(=O)N4CCN(C)CC4)ccc3OCC)nc12.O=C(O)CC(O)(CC(=O)O)C(=O)O [Sildenafil citrate salt]
[8]
  Plate 1 (% inhibition): 83.33%
[9]
  Plate 1 (% conversion): 7.89%

## CC(C)(C)C(=O)Oc1ccc(S(=O)(=O)Nc2ccccc2C(=O)NCC(=O)[O-])cc1.[Na+] [Sivelestat sodium salt hydrate]
[1]
  Plate 3 (% conversion): 36.62%

## CC(C)COC(=O)OCN1C(=O)CN(CCN2CC(=O)N(COC(=O)OCC(C)C)C(=O)C2)CC1=O [Sobuzoxane]
  % conversion: 68.13%

## NC(=O)C(=O)O [Sodium Oxamate]
[1]
  Plate 3 (% conversion): 31.22%

## O=C1NC(=O)[C@@]2(CCOc3ccc(F)cc32)N1 [Sorbinil]
[8]
  Plate 1 (% inhibition): -13.94%
[9]
  Plate 1 (% conversion): 40.55%

## NCCCCNCCCN [Spermidine trihydrochloride]
[4]
  % conversion: 36.29%
[11]
  inhibition at 20 µM: 0.53%

## NCCCNCCCCNCCCN [Spermine tetrahydrochloride]
[4]
  % conversion: 39.42%
[11]
  inhibition at 20 µM: -8.64%

## O=C(CCCN1CCC2(CC1)C(=O)NCN2c1ccccc1)c1ccc(F)cc1 [Spiperone hydrochloride]
[4]
  % conversion: 26.03%
[11]
  inhibition at 20 µM: 30.6%

## CC(=O)S[C@@H]1CC2=CC(=O)CC[C@]2(C)[C@H]2CC[C@@]3(C)[C@@H](CC[C@@]34CCC(=O)O4)[C@H]12 [Spironolactone]
[4]
  % conversion: 41.84%
[11]
  inhibition at 20 µM: -15.7%
